Here are results for one compound from publication PMC9405451, “Uptake and Immunomodulatory Properties of Betanin, Vulgaxanthin I and Indicaxanthin towards Caco-2 Intestinal Cells” (Antioxidants, 2022).

The test system of one assay is IL-6. As to the kind of experiment: IL-6 mRNA level (qPCR) in cytokine-stimulated Caco-2 cells. The assay is classed as cell-based, human. The conditions noted are these: 10 μM co-treatment, 6 h, positive control (not shown). How it is done: (§1) Confluent Caco-2 cells were stimulated with a cocktail of cytokines comprised of tumour necrosis factor-α (TNF-α, 20 ng mL^−1), interleukin-1β (IL-1β, 40 ng mL^−1), interferon-γ (IFN-γ, 10 ng mL^−1) and lipopolysaccharide (LPS, 100 ng mL^−1) in the presence or absence of BET, VUL and IND treatments (5–80 µM) for 6 h. With the completion of incubations, cells were washed with cold DPBS and lysed with TRIsure reagent (Scientific Laboratory Supplies Ltd.). Total RNA of cell samples was extracted in accordance with the manufacturer’s instructions. After resuspending the RNA pellets in DEPC water, concentration and quality were determined using the NanoQuant plate (Tecan Spark 10M plate reader) at 260 and 280 nm. Reverse transcription of RNA was achieved using the iScript™ cDNA Synthesis Kit (Bio-Rad). Transcription levels of target genes—interleukin 6 (IL-6), IL-8, COX-2, iNOS, NADPH oxidase 1 (NOX-1), NAD(P)H quinone dehydrogenase 1 (NQO-1), heme oxygenase 1 (HO-1), glutamate-cysteine ligase catalytic subunit (GCLC), glutathione peroxidase 1 (GPX-1), glutathione S-transferase 1 (GSTA-1) and GSTP-1 were evaluated using SybrGreen based reagent (SensiFast SYBR Green, SLS Ltd., Galveston, TX, USA) via real-time qPCR using StepOne Plus Real-Time PCR System (Applied Biosystems, Nottingham, UK). Primers of target genes were designed and blasted using the NCBI database, whose PCR product sizes were confirmed by 2% agarose gel electrophoresis. The list of primer sequences used in the study is presented in Supplemental Table S1. The calculation of target gene levels was based upon the Livak (2^−ΔΔCT) method with normalisation to the housekeeping gene, β-actin [31].
A general note: Quantitative PCR measures a nucleic acid by following its amplification.

The test system of a further assay is IL-8. As to the kind of experiment: IL-8 mRNA level (qPCR) in cytokine-stimulated Caco-2 cells. The assay is classed as cell-based, human. The conditions noted are these: 10 μM co-treatment, 6 h, positive control (not shown). How it is done:
as §1

Each structure is given as a SMILES string.

With `COc1cc(/C=C/C(=O)CC(=O)/C=C/c2ccc(O)c(OC)c2)ccc1O` [curcumin, reference compound], in the assay on IL-6, the “Effect on cytokine-induced IL-6 generation” value is “strongly suppressed”. Besides, the “Effect on cytokine-induced IL-8 generation” value in the assay with IL-8 is on record as “strongly suppressed”.
